Experimental data: ChEMBL document CHEMBL5465560, “Selectivity Literature for EUbOPEN Chemogenomic Library” (2024)

Key:
[1] = biological target: DNA (cytosine-5)-methyltransferase 1 (Homo sapiens) (UniProt P26358); assay: Selectivity interaction (Transferase panel (protein, RNA, and DNA methyltransferases. and EP300 (acetyltransferase))) EUB0000270b DNMT1
[2] = biological target: T1, Serine/threonine-protein kinase TNNI3K (Homo sapiens) (UniProt Q59H18); assay: Selectivity interaction (KinomeScan (DiscoverX)) EUB0000092b TNNI3K; conditions: at 10 µM
T1 sequence (whole entry): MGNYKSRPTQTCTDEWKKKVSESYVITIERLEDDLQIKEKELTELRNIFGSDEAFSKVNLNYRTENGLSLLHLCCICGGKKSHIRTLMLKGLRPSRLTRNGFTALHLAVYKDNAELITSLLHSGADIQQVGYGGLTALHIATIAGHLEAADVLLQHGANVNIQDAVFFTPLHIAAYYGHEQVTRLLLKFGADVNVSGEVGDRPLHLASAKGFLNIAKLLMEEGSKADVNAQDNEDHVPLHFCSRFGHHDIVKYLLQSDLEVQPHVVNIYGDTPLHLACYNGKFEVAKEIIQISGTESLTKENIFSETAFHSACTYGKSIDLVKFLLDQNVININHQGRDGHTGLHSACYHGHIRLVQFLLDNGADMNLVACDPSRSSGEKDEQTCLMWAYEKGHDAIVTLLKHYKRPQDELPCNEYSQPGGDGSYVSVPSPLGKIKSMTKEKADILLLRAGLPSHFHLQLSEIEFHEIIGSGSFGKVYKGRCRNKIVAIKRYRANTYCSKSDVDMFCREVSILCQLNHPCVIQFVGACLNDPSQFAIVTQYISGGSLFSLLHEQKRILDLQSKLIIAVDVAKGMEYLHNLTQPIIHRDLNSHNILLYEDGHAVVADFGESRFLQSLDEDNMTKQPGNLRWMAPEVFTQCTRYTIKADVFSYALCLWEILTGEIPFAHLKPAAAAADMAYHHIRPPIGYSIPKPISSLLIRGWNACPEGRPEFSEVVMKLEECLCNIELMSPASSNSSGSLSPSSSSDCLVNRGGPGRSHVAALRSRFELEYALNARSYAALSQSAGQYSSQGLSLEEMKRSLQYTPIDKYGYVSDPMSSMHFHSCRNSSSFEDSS

[3] = biological target: STE20-like serine/threonine-protein kinase (Homo sapiens, UniProt Q9H2G2); assay: Selectivity interaction (Ambit KINOMEscan and KiNATiv profiling in Jurkat cells) EUB0000090b SLK; assay type: cell-based; conditions: at 1 µM
[4] = biological target: T2, Serine/threonine-protein kinase Nek5 (Homo sapiens) (UniProt Q6P3R8); assay: Selectivity interaction (KinomeScan (DiscoverX)) EUB0000618a NEK5; conditions: at 10 µM
T2 sequence (whole entry): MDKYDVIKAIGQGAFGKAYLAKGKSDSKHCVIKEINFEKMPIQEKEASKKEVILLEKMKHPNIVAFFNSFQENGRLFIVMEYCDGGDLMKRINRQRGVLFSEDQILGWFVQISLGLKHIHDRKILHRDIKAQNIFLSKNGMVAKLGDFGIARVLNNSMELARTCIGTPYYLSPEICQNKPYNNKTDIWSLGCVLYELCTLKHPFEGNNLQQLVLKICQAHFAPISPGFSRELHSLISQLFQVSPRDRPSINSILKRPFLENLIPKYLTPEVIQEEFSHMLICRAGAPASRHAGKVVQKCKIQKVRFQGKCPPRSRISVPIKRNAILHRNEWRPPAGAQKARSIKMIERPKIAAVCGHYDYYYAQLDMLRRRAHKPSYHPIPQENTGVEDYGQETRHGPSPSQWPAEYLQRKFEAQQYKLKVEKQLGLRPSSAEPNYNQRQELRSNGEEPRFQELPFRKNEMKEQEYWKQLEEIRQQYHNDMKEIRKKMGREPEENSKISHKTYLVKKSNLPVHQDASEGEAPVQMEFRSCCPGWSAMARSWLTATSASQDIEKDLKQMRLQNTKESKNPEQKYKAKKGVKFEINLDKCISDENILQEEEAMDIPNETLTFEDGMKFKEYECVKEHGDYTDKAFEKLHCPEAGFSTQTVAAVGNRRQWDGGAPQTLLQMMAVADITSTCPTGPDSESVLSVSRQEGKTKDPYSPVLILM

[5] = biological target: Ephrin type-A receptor 2 (Homo sapiens) (UniProt P29317); assay: Selectivity interaction (KinomeScan (DiscoverX)) EUB0001619a EPHA2; conditions: at 1 µM
[6] = biological target: T3, Serine/threonine-protein kinase STK11 (Homo sapiens) (UniProt Q15831); assay: Selectivity interaction (KinomeScan (DiscoverX)) EUB0001619a STK11; conditions: at 1 µM
T3 sequence (whole entry): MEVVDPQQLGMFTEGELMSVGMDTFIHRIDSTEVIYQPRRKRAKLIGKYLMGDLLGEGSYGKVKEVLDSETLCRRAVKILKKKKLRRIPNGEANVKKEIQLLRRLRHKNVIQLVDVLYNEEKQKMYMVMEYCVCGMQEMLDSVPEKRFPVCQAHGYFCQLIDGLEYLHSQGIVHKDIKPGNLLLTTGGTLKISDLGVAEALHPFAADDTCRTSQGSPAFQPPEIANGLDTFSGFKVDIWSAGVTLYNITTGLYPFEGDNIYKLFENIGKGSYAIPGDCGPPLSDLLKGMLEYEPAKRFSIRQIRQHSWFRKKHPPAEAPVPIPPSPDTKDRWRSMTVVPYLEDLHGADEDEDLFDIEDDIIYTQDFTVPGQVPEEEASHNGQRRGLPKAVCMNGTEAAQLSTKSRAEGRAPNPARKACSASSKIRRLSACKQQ

[7] = biological target: T4, Myotonin-protein kinase (Homo sapiens) (UniProt Q09013); assay: Selectivity interaction (Upstate Kinase Profiler service (Millipore)) EUB0000056c DMPK; conditions: at 1 µM
T4 sequence (whole entry): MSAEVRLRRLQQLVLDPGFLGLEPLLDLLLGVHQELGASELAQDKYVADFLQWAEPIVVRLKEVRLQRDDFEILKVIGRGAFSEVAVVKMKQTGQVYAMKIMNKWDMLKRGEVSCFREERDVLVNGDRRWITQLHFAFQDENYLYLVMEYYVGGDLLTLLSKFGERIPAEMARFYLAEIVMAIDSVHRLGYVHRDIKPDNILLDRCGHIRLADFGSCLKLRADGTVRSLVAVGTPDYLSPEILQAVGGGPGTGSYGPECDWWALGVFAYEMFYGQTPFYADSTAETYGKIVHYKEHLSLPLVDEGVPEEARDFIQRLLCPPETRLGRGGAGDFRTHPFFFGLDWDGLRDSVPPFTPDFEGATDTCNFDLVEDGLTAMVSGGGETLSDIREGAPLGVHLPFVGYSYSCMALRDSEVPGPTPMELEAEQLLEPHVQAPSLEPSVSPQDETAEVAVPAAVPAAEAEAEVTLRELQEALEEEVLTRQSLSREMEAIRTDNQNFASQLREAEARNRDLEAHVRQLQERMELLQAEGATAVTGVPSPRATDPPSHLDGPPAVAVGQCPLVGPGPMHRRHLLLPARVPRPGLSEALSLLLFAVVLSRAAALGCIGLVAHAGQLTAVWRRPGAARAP

[8] = biological target: T1, Serine/threonine-protein kinase TNNI3K (Homo sapiens); assay: Selectivity interaction (KinomeScan (DiscoverX)) EUB0000695a TNNI3K; conditions: at 100 nM

Sequence of DNA (cytosine-5)-methyltransferase 1 (Homo sapiens) (P26358 whole entry): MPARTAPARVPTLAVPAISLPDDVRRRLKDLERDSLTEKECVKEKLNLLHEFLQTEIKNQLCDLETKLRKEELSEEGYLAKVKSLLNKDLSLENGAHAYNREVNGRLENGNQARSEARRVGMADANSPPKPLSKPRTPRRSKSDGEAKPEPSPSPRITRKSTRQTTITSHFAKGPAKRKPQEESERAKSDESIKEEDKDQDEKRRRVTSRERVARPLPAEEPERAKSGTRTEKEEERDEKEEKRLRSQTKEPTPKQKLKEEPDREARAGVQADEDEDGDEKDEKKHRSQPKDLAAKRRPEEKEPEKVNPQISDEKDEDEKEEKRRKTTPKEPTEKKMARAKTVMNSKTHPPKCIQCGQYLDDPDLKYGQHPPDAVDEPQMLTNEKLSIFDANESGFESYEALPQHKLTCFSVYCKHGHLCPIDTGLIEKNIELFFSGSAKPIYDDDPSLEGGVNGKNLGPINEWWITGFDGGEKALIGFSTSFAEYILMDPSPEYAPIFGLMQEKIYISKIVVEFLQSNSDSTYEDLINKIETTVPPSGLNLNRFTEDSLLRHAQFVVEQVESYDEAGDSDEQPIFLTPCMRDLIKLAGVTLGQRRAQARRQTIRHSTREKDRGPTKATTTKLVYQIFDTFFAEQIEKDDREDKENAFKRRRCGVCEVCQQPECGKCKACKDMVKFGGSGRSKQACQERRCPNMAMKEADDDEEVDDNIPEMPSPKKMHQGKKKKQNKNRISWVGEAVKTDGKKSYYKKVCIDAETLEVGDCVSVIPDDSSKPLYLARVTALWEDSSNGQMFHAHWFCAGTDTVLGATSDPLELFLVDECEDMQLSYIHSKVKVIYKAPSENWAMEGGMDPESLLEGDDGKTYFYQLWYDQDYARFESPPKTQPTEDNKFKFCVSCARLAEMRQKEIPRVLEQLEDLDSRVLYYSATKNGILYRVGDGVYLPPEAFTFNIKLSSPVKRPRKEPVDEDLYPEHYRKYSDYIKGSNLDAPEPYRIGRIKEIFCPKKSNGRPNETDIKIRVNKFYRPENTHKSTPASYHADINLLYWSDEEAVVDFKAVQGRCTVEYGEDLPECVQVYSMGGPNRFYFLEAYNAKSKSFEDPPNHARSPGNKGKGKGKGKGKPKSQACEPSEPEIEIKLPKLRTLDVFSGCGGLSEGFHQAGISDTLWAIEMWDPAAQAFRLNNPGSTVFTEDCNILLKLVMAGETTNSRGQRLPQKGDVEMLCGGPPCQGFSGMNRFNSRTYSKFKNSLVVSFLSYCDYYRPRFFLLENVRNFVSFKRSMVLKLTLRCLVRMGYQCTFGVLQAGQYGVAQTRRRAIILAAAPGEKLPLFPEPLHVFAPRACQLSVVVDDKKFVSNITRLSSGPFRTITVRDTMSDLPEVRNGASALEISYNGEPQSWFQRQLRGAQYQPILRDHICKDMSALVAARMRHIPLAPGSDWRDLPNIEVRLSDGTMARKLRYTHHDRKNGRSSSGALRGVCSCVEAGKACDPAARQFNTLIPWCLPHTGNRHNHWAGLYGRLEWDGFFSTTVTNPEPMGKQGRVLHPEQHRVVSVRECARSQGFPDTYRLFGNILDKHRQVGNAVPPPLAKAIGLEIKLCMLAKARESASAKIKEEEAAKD
Sequence of Ephrin type-A receptor 2 (Homo sapiens) (P29317 whole entry): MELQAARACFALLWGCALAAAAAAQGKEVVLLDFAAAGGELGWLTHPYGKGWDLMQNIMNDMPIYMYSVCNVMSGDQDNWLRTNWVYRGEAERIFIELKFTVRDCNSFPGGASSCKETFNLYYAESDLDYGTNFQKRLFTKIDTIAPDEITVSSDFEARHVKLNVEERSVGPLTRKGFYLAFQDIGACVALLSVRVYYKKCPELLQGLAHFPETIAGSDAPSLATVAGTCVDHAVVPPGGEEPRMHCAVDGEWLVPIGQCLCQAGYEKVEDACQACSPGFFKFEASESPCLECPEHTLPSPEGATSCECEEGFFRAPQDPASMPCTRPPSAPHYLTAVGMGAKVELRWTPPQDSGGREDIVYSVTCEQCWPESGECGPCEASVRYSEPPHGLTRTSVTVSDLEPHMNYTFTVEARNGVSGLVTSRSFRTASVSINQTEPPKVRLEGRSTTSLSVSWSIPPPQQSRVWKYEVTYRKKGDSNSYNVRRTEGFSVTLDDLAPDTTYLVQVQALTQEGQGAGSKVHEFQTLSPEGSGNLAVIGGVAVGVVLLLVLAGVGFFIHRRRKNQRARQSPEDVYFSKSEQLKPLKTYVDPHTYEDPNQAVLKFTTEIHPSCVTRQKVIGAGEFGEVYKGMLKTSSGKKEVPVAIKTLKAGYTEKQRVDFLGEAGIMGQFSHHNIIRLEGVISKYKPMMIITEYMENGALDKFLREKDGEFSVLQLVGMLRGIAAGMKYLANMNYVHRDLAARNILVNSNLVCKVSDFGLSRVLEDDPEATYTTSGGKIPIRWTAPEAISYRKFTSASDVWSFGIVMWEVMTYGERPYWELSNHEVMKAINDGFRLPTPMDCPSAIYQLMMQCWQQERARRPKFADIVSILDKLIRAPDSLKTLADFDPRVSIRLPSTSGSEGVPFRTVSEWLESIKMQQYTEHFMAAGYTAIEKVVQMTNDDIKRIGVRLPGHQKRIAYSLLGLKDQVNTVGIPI
Sequence of STE20-like serine/threonine-protein kinase (Q9H2G2 whole entry, looked up): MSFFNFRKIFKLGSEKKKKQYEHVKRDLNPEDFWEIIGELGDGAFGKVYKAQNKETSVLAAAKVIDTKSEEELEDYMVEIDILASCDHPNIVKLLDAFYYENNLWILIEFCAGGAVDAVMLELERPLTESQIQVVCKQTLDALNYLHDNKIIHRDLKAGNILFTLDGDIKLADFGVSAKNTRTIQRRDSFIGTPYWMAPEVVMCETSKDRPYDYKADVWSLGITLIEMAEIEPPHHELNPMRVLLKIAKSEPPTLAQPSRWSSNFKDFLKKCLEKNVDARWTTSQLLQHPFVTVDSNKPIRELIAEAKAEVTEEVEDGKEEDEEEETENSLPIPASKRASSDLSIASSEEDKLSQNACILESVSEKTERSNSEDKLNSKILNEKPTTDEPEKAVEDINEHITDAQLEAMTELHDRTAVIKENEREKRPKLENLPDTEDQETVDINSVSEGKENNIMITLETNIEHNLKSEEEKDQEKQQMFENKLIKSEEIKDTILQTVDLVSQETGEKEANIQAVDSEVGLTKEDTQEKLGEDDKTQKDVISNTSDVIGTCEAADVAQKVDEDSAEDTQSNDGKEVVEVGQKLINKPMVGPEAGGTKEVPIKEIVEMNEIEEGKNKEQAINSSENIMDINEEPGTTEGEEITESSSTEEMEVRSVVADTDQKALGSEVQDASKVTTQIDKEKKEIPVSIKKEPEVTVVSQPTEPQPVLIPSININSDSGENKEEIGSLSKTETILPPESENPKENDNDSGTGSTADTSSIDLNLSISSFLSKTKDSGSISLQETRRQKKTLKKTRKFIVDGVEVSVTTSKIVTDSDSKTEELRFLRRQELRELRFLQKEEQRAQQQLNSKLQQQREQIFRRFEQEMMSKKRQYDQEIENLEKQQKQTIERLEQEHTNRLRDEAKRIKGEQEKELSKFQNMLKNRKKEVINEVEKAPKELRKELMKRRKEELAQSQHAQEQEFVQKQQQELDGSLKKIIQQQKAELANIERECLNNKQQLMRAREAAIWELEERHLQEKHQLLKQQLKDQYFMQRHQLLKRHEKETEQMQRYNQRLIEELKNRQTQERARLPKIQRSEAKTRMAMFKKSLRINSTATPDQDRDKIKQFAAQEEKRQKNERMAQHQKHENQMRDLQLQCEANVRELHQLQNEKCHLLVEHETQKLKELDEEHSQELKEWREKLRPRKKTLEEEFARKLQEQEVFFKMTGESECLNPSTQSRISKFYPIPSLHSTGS

With Cc1cc(CN)cc(C)c1-c1ncn(C)c1-c1cncn1C the % activity ([1]; at 1 µM) was > 90% and the % activity ([1]; at 10 µM) was > 80%.
CCC(=O)N1CCN(c2ccc(-n3c(=O)ccc4cnc5ccc(-c6cnc7ccccc7c6)cc5c43)cc2C(F)(F)F)CC1 gave a % of control [2] of 66%.
CN(C)C/C=C/C(=O)Nc1ccc(C(=O)N2CCCC(Nc3ncc(Cl)c(-c4c[nH]c5ccccc45)n3)C2)cc1 (centres undefined) gave a % of control [3] of 70%.
O[C@H]1CC[C@H](Nc2ncc3nc(Nc4c(F)cc(F)cc4F)n([C@H]4CCOC4)c3n2)CC1 showed a % of control [4] of 100%.
Work on N#Cc1cccc(-c2c[nH]c3ncnc(N4CCOCC4)c23)c1 yielded a % of control [5] of 100% and a % of control [6] of 100%.
In the case of Cc1ccc(-c2ccc3c(ccc4sc5c(c43)NC[C@@H](C)NC5=O)n2)cn1, the % of inhibition [7] is reported as -8%.
Cc1cc(F)c(C(=O)Nc2cccc(-c3nncn3C(C)C)n2)cc1-n1cnc(C2CC2)c1 was tested, and the % of control [8] was 100%.
